# Reference: patent US20060074079A1, “Solid pharmaceutical formulations comprising Diacereine and Meloxicam” (Leopoldo Espinosa Abdala, priority 2004, published 2006)
# Key:
# [1] = clinical trials, administered to 2 years; cited from earlier work
# [2] = tested on: gout arthritis induced by intra-articular uric acid; experiment: Pain Induced Functional Impairment model in the Rat (PIFIR), analgesic activity; assay type: in vivo, male Wistar rats; conditions: oral, single doses, rats with gout arthritis, FIG. 1
# Description: The experiments were carried out using male Wistar rats having a body weight between 180 and 200 g. […] The number of test animals was taken to the minimal (6 animals for each experimental aspect). Animals were kept in a room with light/darkness cycles. Rats were fastened twelve hours prior the beginning of experiments, leaving only free access to water. All the experiments were run during the light phase, using the animals only once.
# The evaluation of analgesic effects was carried out using the Pain Induced Functional Impairment model in the Rat (PIFIR) model. Animals were anesthetized in a glass desiccator saturated with ether vapors. Gout arthritis was induced, upon application of a intra-articular injection of 0.05 ml of uric acid suspended in mineral oil, in the right-side hind leg, exactly in the femoral-tibio-patellar joint. […] Variable measured was contact time of each hind leg of every rat in the cylinder.
# Rats were administered with each of the compounds orally. […] This period of time (2.5 hours after administration of uric acid) was considered as time “0”, in order to administer in this point of time the antinociceptive or analgesic treatment and the temporary course of each treatment were determined during the following 4 continuous hours. […]
# Data are expressed as Percentage of Functionality Index (FI %). […]
# [3] = tested on: Interleukin-1 beta production in human monocytes; conditions: human monocytes in vitro (Berdah et al., 1993); cited from earlier work
# [4] = tested on: cyclooxygenase (COX) from kidney or platelet; conditions: from kidney or platelet (LaVilla et al., 1989); cited from earlier work
Structure (SMILES),safety on long-term administration [1],"TC efficacy (analgesic effect, FI % temporal course) [2]",Interleukin-1 beta production [3],activity of cyclooxygenase (COX) [4]
"CC(=O)Oc1cccc2c1C(=O)c1c(OC(C)=O)cc(C(=O)O)cc1C2=O [Diacereine, 1,8-diacetoxy-3-carboxy-anthraquinone]",without having safety problems,unable to generate analgesic effects,inhibit,does not disrupt
"O=C(O)c1cc(O)c2c(c1)C(=O)c1cccc(O)c1C2=O [reine, Reine]",–,–,inhibit,–
